This is an account of results in patent US20230122344A1, “ANTAGONISTS OF THE MUSCARINIC ACETYLCHOLINE RECEPTOR M4” (Vanderbilt University, priority 2019, published 2023).

In this test the target is T1, Human M4 (Homo sapiens, UniProt P08173).
T1 construct: expressed in transfected cells; host or cells: CHO-K1 (ATCC), co-transfected with chimeric G protein Gqi5
T1 sequence (P08173 1-479): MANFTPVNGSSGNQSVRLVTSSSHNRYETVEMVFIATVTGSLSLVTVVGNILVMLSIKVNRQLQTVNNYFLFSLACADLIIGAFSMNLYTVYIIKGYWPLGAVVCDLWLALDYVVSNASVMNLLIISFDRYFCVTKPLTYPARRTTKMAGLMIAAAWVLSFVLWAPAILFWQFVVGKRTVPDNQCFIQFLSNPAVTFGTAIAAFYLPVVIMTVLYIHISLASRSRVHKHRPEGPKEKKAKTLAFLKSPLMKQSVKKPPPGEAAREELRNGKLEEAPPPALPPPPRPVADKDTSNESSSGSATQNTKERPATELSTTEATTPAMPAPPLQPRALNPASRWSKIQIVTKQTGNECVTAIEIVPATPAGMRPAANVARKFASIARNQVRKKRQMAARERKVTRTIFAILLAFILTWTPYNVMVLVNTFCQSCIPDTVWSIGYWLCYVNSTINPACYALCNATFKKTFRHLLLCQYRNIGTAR
The test can be described thus: mAChR M4 cell-based functional assay (calcium flux, antagonism of EC80 acetylcholine response). The settings on record: M4/Gqi5/CHO-K1 cells; for remaining activity at 30 µM: CHO-K1, % ACh maximum at 30 μM, read-out: Human M4 Emin; for IC50: decrease of response elicited by EC80 acetylcholine. The protocol:
Human or rat M4 cDNA, along with the chimeric G protein Gqi5, were transfected into Chinese hamster ovary (CHO-K1) cells purchased from the American Type Culture Collection using Lipofectamine2000. M4/Gqi5/CHO cells were grown in Ham's F-12 medium containing 10% heat-inactivated fetal bovine serum (FBS), 20 mM HEPES, 500 μg/mL G418 sulfate, and 200 μg/mL Hygromycin B.
For high throughput measurement of agonist-evoked increases in intracellular calcium, CHO-K1 cells stably expressing muscarinic receptors were plated in growth medium lacking G418 and hygromycin at 15,000 cells/20 μL/well in Greiner 384-well black-walled, tissue culture (TC)-treated, clear-bottom plates (VWR). Cells were incubated overnight at 37° C. and 5% CO2. The next day, cells were washed using an ELX 405 (BioTek) with assay buffer; the final volume was then aspirated to 20 μL. Next, 20 μL of a 2.3 μM stock of Fluo-4/acetoxymethyl ester (Invitrogen, Carlsbad, Calif.), prepared as a 2.3 mM stock in DMSO and mixed in a 1:1 ratio with 10% (w/v) Pluronic F-127 and diluted in assay buffer, was added to the wells and the cell plates were incubated for 50 min at 37° C. and 5% CO2. Dye was removed by washing with the ELX 405 and the final volume was aspirated to 20 μL. Compound master plates were formatted in a 10 point concentration-response curve (CRC) format (1:3 dilutions) in 100% DMSO with a starting concentration of 10 or 1 mM using a BRAVO liquid handler (Agilent). Test compound CRCs were then transferred to daughter plates (240 nL) using the Echo acoustic plate reformatter (Labcyte, Sunnyvale, Calif.) and then diluted into assay buffer (40 μL) to a 2× stock using a Thermo Fisher Combi (Thermo Fisher Scientific, Waltham, Mass.).
Calcium flux was measured using the Functional Drug Screening System (FDSS) 6000 or 7000 (Hamamatsu Corporation, Tokyo, Japan) as an increase in the fluorescent static ratio. Compounds were applied to cells (20 μL, 2×) using the automated system of the FDSS at 2 seconds into the protocol and the data were collected at 1 Hz. At 143 s, 10 μL of an EC20 concentration of the muscarinic receptor agonist acetylcholine was added (5×), followed by the addition of 12 μL of an EC80 concentration of acetylcholine at the 268 s time point (5×). Agonist activity was analyzed as a concentration-dependent increase in calcium mobilization upon compound addition. Positive allosteric modulator activity was analyzed as a concentration-dependent increase in the EC20 acetylcholine response. Antagonist activity was analyzed as a concentration-dependent decrease in the EC80 acetylcholine response; for the purposes of the tables herein, an IC50 (inhibitory concentration 50) was calculated as a concentration-dependent decrease of the response elicited by an EC80 concentration of acetylcholine. Concentration-response curves were generated using a four-parameter logistical equation in XLFit curve fitting software (IDBS, Bridgewater, N.J.) for Excel (Microsoft, Redmond, Wash.) or Prism (GraphPad Software, Inc., San Diego, Calif.) or the Dotmatics software platform (Dotmatics, Bishop's Stortford, UK).
Compounds were synthesized as described above. Activity (IC50 and Emin) was determined in the mAChR M4 cell-based functional assay as described above and the data are shown in Table 2.

`OC1(CN2C[C@H]3C[C@H](Nc4cc(C(F)F)c(-c5cc(F)cc(F)c5F)nn4)C[C@H]3C2)CCCCC1` [compound 54, 1-(((3aR,5s,6aS)-5-((5-(difluoromethyl)-6-(2,3,5-trifluorophenyl)pyridazin-3-yl)amino)hexahydrocyclopenta[c]pyrrol-2(1H)-yl)methyl)cyclohexan-1-ol]: the remaining activity at 30 µM is 1% and the IC50 worked out at 3.42 nM.

Consider `[2H]C([2H])(C1CCOCC1)N1C[C@H]2C[C@H](Nc3nnc(N4CCC(F)(F)CC4)cc3C3CCC3)C[C@H]2C1` [compound 29, (3aR,5s,6aS)-N-(4-cyclobutyl-6-(4,4-difluoropiperidin-1-yl)pyridazin-3-yl)-2-((tetrahydro-2H-pyran-4-yl)methyl-d2)octahydrocyclopenta[c]pyrrol-5-amine], for which the remaining activity at 30 µM came to 2% and the IC50 worked out at 60.7 nM.

For `COc1cc(-c2cc(F)ccc2F)nnc1N[C@H]1C[C@@H]2CN(CC3CCOCC3)C[C@@H]2C1` [compound 4, (3aR,5s,6aS)-N-(6-(2,5-difluorophenyl)-4-methoxypyridazin-3-yl)-2-((tetrahydro-2H-pyran-4-yl)methyl)octahydrocyclopenta[c]pyrrol-5-amine], the remaining activity at 30 µM came out at 3% and the IC50 stood at 12 nM.

Take `Cc1ccc(C(F)(F)F)cc1-c1cc(C(F)F)c(N[C@H]2C[C@@H]3CN(CC4CCOCC4)C[C@@H]3C2)nn1` [compound 82, (3aR,5s,6aS)-N-(4-(difluoromethyl)-6-(2-methyl-5-(trifluoromethyl)phenyl)pyridazin-3-yl)-2-((tetrahydro-2H-pyran-4-yl)methyl)octahydrocyclopenta[c]pyrrol-5-amine]: the remaining activity at 30 µM is 4% and the IC50 was found to be 49 nM.

Consider `[2H]C([2H])(C1CCOCC1)N1C[C@H]2C[C@H](Nc3nnc(-c4cc(F)cc(F)c4F)cc3C(F)F)C[C@H]2C1` [compound 88, (3aR,5s,6aS)-N-(4-(difluoromethyl)-6-(2,3,5-trifluorophenyl)pyridazin-3-yl)-2-((tetrahydro-2H-pyran-4-yl)methyl-d2)octahydrocyclopenta[c]pyrrol-5-amine], for which the remaining activity at 30 µM was found to be 3% and the 50% inhibitory concentration (IC50) was 10 nM.

With `Cc1c(-c2cc(F)ccc2Cl)nnc(N[C@H]2C[C@@H]3CN(CC4CCOCC4)C[C@@H]3C2)c1C#N` [compound 67, 6-(2-chloro-5-fluorophenyl)-5-methyl-3-(((3aR,5s,6aS)-2-((tetrahydro-2H-pyran-4-yl)methyl)octahydrocyclopenta[c]pyrrol-5-yl)amino)pyridazine-4-carbonitrile], the remaining activity at 30 µM was 2% and the IC50 came to 0.83 nM.

As to `[2H]C([2H])(C1CCOCC1)N1C[C@H]2C[C@H](Nc3nnc(-c4cc(F)ccc4F)c(C)c3C(F)(F)F)C[C@H]2C1` [compound 75, (3aR,5s,6aS)-N-(6-(2,5-difluorophenyl)-5-methyl-4-(trifluoromethyl)pyridazin-3-yl)-2-((tetrahydro-2H-pyran-4-yl)methyl-d2)octahydrocyclopenta[c]pyrrol-5-amine], the remaining activity at 30 µM was 3% and the IC50 was determined as 20.9 nM.

In the case of `Cc1c(-c2cc(C(F)F)c(N[C@H]3C[C@@H]4CN(CC5CCOCC5)C[C@@H]4C3)nn2)ccc2nn(C)cc12` [compound 84, (3aR,5s,6aS)-N-(4-(difluoromethyl)-6-(2,4-dimethyl-2H-indazol-5-yl)pyridazin-3-yl)-2-((tetrahydro-2H-pyran-4-yl)methyl)octahydrocyclopenta[c]pyrrol-5-amine], the remaining activity at 30 µM is 3% and the IC50 was found to be 0.89 nM.

Regarding `COc1ccc(F)cc1-c1nnc(N[C@H]2C[C@@H]3CN(CC4CCOCC4)C[C@@H]3C2)cc1C(F)F` [compound 42, (3aR,5s,6aS)-N-(5-(difluoromethyl)-6-(5-fluoro-2-methoxyphenyl)pyridazin-3-yl)-2-((tetrahydro-2H-pyran-4-yl)methyl)octahydrocyclopenta[c]pyrrol-5-amine], the remaining activity at 30 µM was determined as 2% and the IC50 worked out at 0.67 nM.

As to `[2H]C([2H])(C1CCOCC1)N1C[C@H]2C[C@H](Nc3nnc(-c4cc(F)cc(F)c4F)c(C4CC4)c3C(F)(F)F)C[C@H]2C1` [compound 77, (3aR,5s,6aS)-N-(5-cyclopropyl-4-(trifluoromethyl)-6-(2,3,5-trifluorophenyl)pyridazin-3-yl)-2-((tetrahydro-2H-pyran-4-yl)methyl-d2)octahydrocyclopenta[c]pyrrol-5-amine], the remaining activity at 30 µM came to 2% and the IC50 is 83.5 nM.

On to `[2H]C([2H])(C1CCOCC1)N1C[C@H]2C[C@H](Nc3nnc(-c4cc(F)ccc4C)cc3C)C[C@H]2C1` [compound 20, (3aR,5s,6aS)-N-(6-(5-fluoro-2-methylphenyl)-4-methylpyridazin-3-yl)-2-((tetrahydro-2H-pyran-4-yl)methyl-d2)octahydrocyclopenta[c]pyrrol-5-amine], for which the remaining activity at 30 µM was found to be 3% and the IC50 turned out to be 0.54 nM.

In the case of `Cc1cc(N[C@H]2C[C@@H]3CN(CC4CCOCC4)C[C@@H]3C2)nnc1-c1cc(F)cc(F)c1F` [compound 35, (3aR,5s,6aS)-N-(5-methyl-6-(2,3,5-trifluorophenyl)pyridazin-3-yl)-2-((tetrahydro-2H-pyran-4-yl)methyl)octahydrocyclopenta[c]pyrrol-5-amine], the remaining activity at 30 µM is 3% and the IC50 was 0.5 nM.

For the compound `Fc1ccc(F)c(-c2cc(C(F)F)c(N[C@H]3C[C@@H]4CN(CC5CCOCC5)C[C@@H]4C3)nn2)c1` [compound 58, (3aR,5s,6aS)-N-(4-(difluoromethyl)-6-(2,5-difluorophenyl)pyridazin-3-yl)-2-((tetrahydro-2H-pyran-4-yl)methyl)octahydrocyclopenta[c]pyrrol-5-amine], the remaining activity at 30 µM came out at 3% and the IC50 amounted to 6.42 nM.

Consider `CC(c1ccccn1)N1C[C@H]2C[C@H](Nc3cc(C(F)F)c(-c4cc(F)cc(F)c4F)nn3)C[C@H]2C1` (stereo partly drawn) [compound 50, (3aR,5s,6aS)-N-(5-(difluoromethyl)-6-(2,3,5-trifluorophenyl)pyridazin-3-yl)-2-(1-(pyridin-2-yl)ethyl)octahydrocyclopenta[c]pyrrol-5-amine], for which the remaining activity at 30 µM was determined as 2% and the IC50 worked out at 34.8 nM.

`COc1cc(-c2cc3cn(C)nc3cc2F)nnc1N[C@H]1C[C@@H]2CN(CC3CCOCC3)C[C@@H]2C1` [compound 6, (3aR,5s,6aS)-N-(6-(6-fluoro-2-methyl-2H-indazol-5-yl)-4-methoxypyridazin-3-yl)-2-((tetrahydro-2H-pyran-4-yl)methyl)octahydrocyclopenta[c]pyrrol-5-amine]: the remaining activity at 30 µM is 4% and the IC50 amounted to 44 nM.
